Laboratory results: patent US11883430B2, “CD38-NAD+ regulated metabolic axis in anti-tumor immunotherapy” (MUSC FOUNDATION FOR RESEARCH DEVELOPMENT, priority 2016, dated 2024)

Experiments:
Th17 cells = assay: Seahorse oxygen consumption rate with etomoxir; assay type: cell-based, mouse; settings: etomoxir 200 μM (FIG. 3I)
Source text: (§1) FIGS. 3A-3P: Hybrid Th1/17 cells are metabolically distinct from Th1 and Th17 cells and depend upon glutaminolysis. The ex vivo programmed Th1, Th17 and Th1/17 cells were used to determine: (A) Glucose uptake using 2NBDG. Adjacent bar diagram represents the cumulative data of mean fluorescence intensity (MFI) from three independent experiments. (B) ECAR time course in response to glucose, oligomycin and 2DG (left panel). […] (C) Intracellular expression of GAPDH by FACS. Adjacent bar represents cumulative data from 3 experiments. (D) Glycolysis associated genes using qPCR. Genes including Glut1, HKI, HKII, Pfkb1, Pkm2, and LdhA are lower in Th1/Th17 while Pfkb3 and Pgam 1 are higher. (E-G) Oxygen consumption rate (OCR) under basal condition and in response to indicated mitochondrial inhibitors. Graphs representing time course (E), basal OCR (F), and OCR/ECAR ratio (G). (H) Expression of CTP1a using qPCR. […] (M) Uptake of radiolabelled glutamine that was measured in count per minute (CPM). […] (P) TRP-1 Th1/17 cells differentiated either in presence of vehicle control (DMSO) or DON (3 μM) were adoptively transferred (0.5×10^6) in 9 days s.c. established B16-F10 melanoma tumor bearing mice and tumor growth was measured. […]
(§2) Oxygen consumption rate (OCR) and Extracellular acidification rate (ECAR) was determined using Seahorse Xfe96 analyser (Agilent Technologies, Santa Clara, CA). […] OCR, a measure of OXPHOS, was analysed under basal condition or in response to 200 μM Etomoxir (Sigma-Aldrich, St. Louis, MO) followed by 1.0 μM oligomycin (Sigma-Aldrich, St. Louis, MO), 1.0 μM fluoro-carbonyl cyanide phenylhydrazone (FCCP) (Sigma-Aldrich, St. Louis, MO) and 2 μM rotenone (Sigma-Aldrich, St. Louis, MO) plus 100 nM antimycin A (Sigma-Aldrich, St. Louis, MO). ECAR, a measure of glycolysis was measured under basal conditions and in response to glucose (5.5 mM), Oligomycin (1.0 μM), 2-deoxyglucose (2-DG) (100 mM) (Sigma-Aldrich, St. Louis, MO).

Th1 cells [1] = assay: Seahorse oxygen consumption rate with etomoxir; assay type: cell-based, mouse; settings: etomoxir 200 μM (FIG. 3J)
Source text: as §1, §2

Th1/17 cells [2] = assay: Seahorse oxygen consumption rate with etomoxir; assay type: cell-based, mouse; settings: etomoxir 200 μM (FIG. 3K)
Source text: as §1, §2

Th1/17 cells [3] = assay: qPCR gene expression in Th1/17 cells; assay type: cell-based, mouse; settings: Th1/17 differentiated with FK866 10 nM or Ex527 (FIGS. 4D, 5D)
Experimental: Real-time quantitative-PCR: Total RNA was extracted from pellets of the indicated T cell subsets (2×10^6 cells) using Trizol reagent (Life technologies, Grand Island, NY). cDNA was generated from 1 μg total RNA using iScript cDNA Synthesis Kit (BioRad, Hercules, CA). SYBR Green incorporation quantitative real-time PCR was performed using a SYBR Green mix (Biorad, Hercules, CA) in the CFX96 Detection System (BioRad, Hercules, CA). Expression of different genes was quantified relative to Actb.

Th1 cells [4] = assay: Intracellular cytokine (IFNγ, IL17) flow cytometry after PMA and ionomycin; assay type: cell-based, mouse; settings: Th1 subsets (FIGS. 12A and 12B)
Experimental: FIGS. 12A-12D: Loss of Sirt1 expression and NAD+ levels on Th1/17 cell phenotype and function (see FIG. 5). (A) Purified CD4^+ T cells from C57BL/6 were used to differentiate to Th1/17 cells either alone or in the presence of Ex527, a pharmacological inhibitor of Sirt1. Cells were then restimulated with PMA and ionomycin for 4 hr in presence of golgi block to stain for intracellular accumulation of cytokines IFNγ and IL17. (B) Th1 cells were cultured either in presence or absence of NAD+ inhibitor FK866 (10 nM) and intracellular staining was performed for IFNγ and IL17. Data was acquired using FACS and analysis was carried out using FlowJo software. (C-D) Purified splenic CD4^+ T cells from either C57BL/6 WT or Sirt1fl/flCD4Cre (Sirt1KO) mouse were used to ex vivo program for Th1/17 cells. RNA was prepared and quantitative PCR analysis was performed for the expression of various glycolysis (C) and glutaminolysis (D) associated genes in either WT or Sirt1KO Th1/17 cells. Data in section A-D are representative of three independent experiments.
T cell differentiation: Naïve CD4^+ T cells were purified from the total splenocytes of 6-9 weeks old WT (C57BL/6) and KO (Foxo1^fl/flLck^cre, Sirt1^fl/flCD4^cre, CD38KO) mice using CD4^+ T cell isolation kit (Miltenyi Biotec) according to manufacturer's protocol. […]

Th1/17 cells [5] = assay: as above; assay type: cell-based, mouse; settings: WT T cells programmed in presence of Ex527; sentence says both Th17 and Th1/17 cells (FIG. 12A)
Source text: T cell differentiation: Naïve CD4^+ T cells were purified from the total splenocytes of 6-9 weeks old WT (C57BL/6) and KO (Foxo1^fl/flLck^cre, Sirt1^fl/flCD4^cre, CD38KO) mice using CD4^+ T cell isolation kit (Miltenyi Biotec) according to manufacturer's protocol. Total splenocytes from 6-9 weeks old TCR transgenic mouse TRP-1 (bears class-II restricted CD4^+ T cells) or Pmel (bears class-I restricted CD8^+ T cells) or TCR-I (bears class-I restricted CD8^+ T cells) were also used. Within experiments mice were age and sex matched. Purified naïve CD4^+ T cells or total splenocytes were differentiated to Th1 or Tc1 (10 ng/ml IL12, 50 U/ml IL2 and 10 μg/ml anti-IL4), Th17 or Tc17 (3 ng/ml TGFβ, 25 ng/ml IL6, 10 μg/ml anti-IL4 and 10 μg/ml anti-IFNγ), Th1/17 or Tc1/17 (20 ng/ml IL1β, 25 ng/ml IL6, 10 ng/ml IL12, 20 ng/ml IL23, 400 pg/ml TGFβ, 10 μg/ml anti-IL4, 5 μg/ml anti-IFNγ), iTreg (5 ng/ml TGFβ, 100 IU/ml IL2, 10 μg/ml anti-IL4 and 10 μg/ml anti-IFNγ or Th0 (50 IU/ml IL2) in presence of plate bound anti-CD3 (5 μg/ml) and anti-CD28 (5 μg/ml). For TRP-1, gp100 or Sv40 specific generation of different Th or Tc subsets, total splenocytes from either TRP-1, Pmel or TCR-I TCR transgenic mice were stimulated with 1 μg/ml respective peptides in presence of above-mentioned polarizing conditions. T cells were differentiated for three days in IMDM media supplemented with 10% FCS, 4 mM L-glutamine, 100 U/ml penicillin, 100 μg/ml streptomycin, 55 μM beta-mercaptoethanol under 7% CO2, atmospheric oxygen at 37° C. in a humidified incubator. For evaluation of intracellular cytokines by flow cytometry, T cells were re-stimulated with PMA (500 ng/ml) and Ionomycin (500 ng/ml) for 4 hr in presence of Glogi inhibitors. […]
Flow cytometry: Staining for cell surface markers was performed by incubating cells with antibody at 1:200 dilutions in FACS buffer (0.1% BSA in PBS) for 30 min at 4° C. […] Samples were acquired on LSRFortessa and analysed with FlowJo software (Tree Star, OR).

[6] = system: B16-F10-HLA-A2+ murine melanoma; assay: Adoptive T cell transfer, s.c. B16-F10-HLA-A2+ melanoma, tumor growth; assay type: in vivo, mouse; settings: Th1/17 differentiated ex vivo with FK866 or Ex527 vs untreated/vehicle (FIGS. 4E, 5F)

Row | Compound | OCR and SRC values (Th17 cells) | OXPHOS (Th1 cells [1]) | OXPHOS (Th1/17 cells [2]) | expression of stemness-associated genes (Th1/17 cells [3]) | IFNγ secreting fraction (Th1 cells [4]) | frequency of IL17+ population (Th1/17 cells [5]) | tumor control by inhibitor-treated Th1/17 cells upon adoptive transfer [6]
1 | CCOC(=O)[C@@]1(CCCCCCOc2ccc(Cl)cc2)CO1 [etomoxir] | significantly depleted OCR and SRC values | mostly unaffected | mostly unaffected |  |  |  | 
2 | NC(=O)C1CCCc2c1[nH]c1ccc(Cl)cc21 (stereo not shown) [Ex527] |  |  |  | markedly reduced | No significant difference | decreased frequency of IL17^+ population | reduced ability to control tumor growth as compared to the vehicle treated cells
